ChEMBL document CHEMBL5329181, “Green synthesis and anti-biofilm activities of 3,5-disubstituted isoxazoline/isoxazole-linked secondary sulfonamide derivatives on Pseudomonas aeruginosa” (2023)
Activity calls are given as the source filed them. No cut-off for these calls is given here.

Experiments:
Pseudomonas aeruginosa [1] = experiment: Antibiofilm activity against Pseudomonas aeruginosa assessed as inhibition of biofilm formation at 200 uM incubated for 24 hrs by crystal violet staining based assay; type: functional, organism-based
Pseudomonas aeruginosa [2] = experiment: Antibacterial activity against Pseudomonas aeruginosa H103 assessed as reduction in bacterial growth at 200 uM measured every 15 min for 24 hrs by optical density based analysis; type: functional, organism-based
Pseudomonas aeruginosa [3] = experiment: Destabilization of mature biofilms in Pseudomonas aeruginosa assessed as biofilm dispersion at 200 uM incubated for 24 hrs by crystal violet staining based assay relative to control; type: functional

| Compound | Activity (Pseudomonas aeruginosa [1]) | Activity (Pseudomonas aeruginosa [2]) | Activity (Pseudomonas aeruginosa [3]) |
| --- | --- | --- | --- |
| NNC(=O)c1ccccc1S(=O)(=O)NCC1CC(c2cccc([N+](=O)[O-])c2)=NO1 (stereo not drawn) | inactive | inactive |  |
| COc1ccc(C2=NOC(CNS(=O)(=O)c3ccccc3C(=O)NN)C2)cc1 (stereo not drawn) | inactive | inactive | 50% |
| NNC(=O)c1ccccc1S(=O)(=O)NCC1CC(c2ccccc2Cl)=NO1 (stereo not drawn) | inactive | inactive | inactive |
| C#CCNS(=O)(=O)c1ccccc1C(=O)NN | inactive | inactive |  |
| NNC(=O)c1ccccc1S(=O)(=O)NCC1CC(c2ccc(Cl)cc2)=NO1 (stereo not drawn) | inactive | inactive | inactive |
| NNC(=O)c1ccccc1S(=O)(=O)NCc1cc(-c2ccc(Cl)cc2Cl)no1 | inactive | inactive | 50% |
| NNC(=O)c1ccccc1S(=O)(=O)NCC1CC(c2ccc(Br)cc2)=NO1 (stereo not drawn) | inactive | inactive |  |
| NNC(=O)c1ccccc1S(=O)(=O)NCc1cc(-c2ccc(Br)cc2)no1 | inactive | inactive |  |
| NNC(=O)c1ccccc1S(=O)(=O)NCC1CC(c2ccc(Cl)c(Cl)c2)=NO1 (stereo not drawn) | inactive | inactive |  |
| CN[C@@H]1[C@@H](O[C@H]2O[C@H](CO)[C@@H](N)[C@H](O)[C@H]2O)O[C@H]2C[C@@H](N)[C@@H](O[C@H]3[C@H](O)[C@@H](O)[C@H](N)C[C@@H]3N)O[C@@H]2[C@@H]1O |  |  | 50% |
| Cc1ccc(C2=NOC(CNS(=O)(=O)c3ccccc3C(=O)NN)C2)cc1 (stereo not drawn) | inactive | inactive |  |
| NNC(=O)c1ccccc1S(=O)(=O)NCC1CC(c2ccccc2)=NO1 (stereo not drawn) | inactive | inactive |  |
| C=CCNS(=O)(=O)c1ccccc1C(=O)NN | inactive | inactive | 30% |
| NNC(=O)c1ccccc1S(=O)(=O)NCC1CC(c2ccc(Cl)cc2Cl)=NO1 (stereo not drawn) | inactive | inactive | 50% |
